Laboratory results from PubChem BioAssay AID2060506 (Molecular Pharmacology Branch, DTP, NCI, 2025).
pIC50: −log10 of the molar value.

Tested on: 598228-144-R-J1-PDC complex spheroid viability
Assay: Anticancer human tumor 598228-144-R-J1-PDC patient-derived serous endometrial adenocarcinoma cell line growth inhibition [GQUAD]
Settings: for pIC50: curve of first compound; for viability, T/C: stronger effect = lower value
Method in brief: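 Multi-cell-type spheroids of tumor cells with HUVEC and mesenchymal stem cells, treated with drug combinations. Concentrations descend in half-log steps from near clinical Cmax, or from 10 microM where Cmax is unknown; viability read-out.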

[1] = second compound 0.0316 µM, first compound 0.0316 µM
[2] = second compound 0.0316 µM, first compound 0.1 µM
[3] = second compound 0.0316 µM, first compound 0.316 µM
[4] = second compound 0.0316 µM, first compound 1 µM
[5] = second compound 0.0316 µM, first compound 3.16 µM
[6] = second compound 0.0316 µM, first compound 10 µM
[7] = second compound 0.1 µM, first compound 0.0316 µM
[8] = second compound 0.1 µM, first compound 0.1 µM
[9] = second compound 0.1 µM, first compound 0.316 µM
[10] = second compound 0.1 µM, first compound 1 µM
[11] = second compound 0.1 µM, first compound 3.16 µM
[12] = second compound 0.1 µM, first compound 10 µM
[13] = second compound 0.316 µM, first compound 0.0316 µM
[14] = second compound 0.316 µM, first compound 0.1 µM
[15] = second compound 0.316 µM, first compound 0.316 µM
[16] = second compound 0.316 µM, first compound 1 µM
[17] = second compound 0.316 µM, first compound 3.16 µM
[18] = second compound 0.316 µM, first compound 10 µM
[19] = second compound 1 µM, first compound 0.0316 µM
[20] = second compound 1 µM, first compound 0.1 µM
[21] = second compound 1 µM, first compound 0.316 µM
[22] = second compound 1 µM, first compound 1 µM
[23] = second compound 1 µM, first compound 3.16 µM
[24] = second compound 1 µM, first compound 10 µM
[25] = second compound 3.16 µM, first compound 0.0316 µM
[26] = second compound 3.16 µM, first compound 0.1 µM
[27] = second compound 3.16 µM, first compound 0.316 µM
[28] = second compound 3.16 µM, first compound 1 µM
[29] = second compound 3.16 µM, first compound 3.16 µM
[30] = second compound 3.16 µM, first compound 10 µM
[31] = second compound 10 µM, first compound 0.0316 µM
[32] = second compound 10 µM, first compound 0.1 µM
[33] = second compound 10 µM, first compound 0.316 µM
[34] = second compound 10 µM, first compound 1 µM
[35] = second compound 10 µM, first compound 3.16 µM
[36] = second compound 10 µM, first compound 10 µM
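Also: spheroids exposed to the agents for one week before reading.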
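For viability, T/C in this document: percent of vehicle DMSO control viability so 100% = untreated growth.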

Question: With C#Cc1c(F)ccc2cc(O)cc(-c3ncc4c(N5CC6CCC(C5)N6)nc(OCC56CCCN5CC(F)C6)nc4c3F)c12 (stereo unspecified) + Cc1[nH]c2ccc(F)cc2c1-c1nc2c3cccnc3c3ncccc3c2[nH]1 as the molecule, how does the pIC50 (second compound 0.0316 µM) read?
Answer: < 5.00

Question: And the pIC50 (second compound 0.1 µM)?
Answer: < 5.00

Question: What about the pIC50 (second compound 0.316 µM) of the same molecule?
Answer: < 5.00

Question: What about the pIC50 (second compound 1 µM) of the same molecule?
Answer: < 5.00

Question: What about the pIC50 (second compound 3.16 µM) of the same molecule?
Answer: > 7.50

Question: And the pIC50 (second compound 10 µM)?
Answer: < 5.00

Question: And the viability, T/C [1]?
Answer: 124%

Question: What about the viability, T/C [2] of the same molecule?
Answer: 88.7%

Question: What about the viability, T/C [3] of the same molecule?
Answer: 120%

Question: What about the viability, T/C [4] of the same molecule?
Answer: 100%

Question: And the viability, T/C [5]?
Answer: 114%

Question: And the viability, T/C [6]?
Answer: 111%

Question: And the viability, T/C [7]?
Answer: 121%

Question: What about the viability, T/C [8] of the same molecule?
Answer: 126%

Question: And the viability, T/C [9]?
Answer: 97.2%

Question: What about the viability, T/C [10] of the same molecule?
Answer: 107%

Question: What about the viability, T/C [11] of the same molecule?
Answer: 143%

Question: And the viability, T/C [12]?
Answer: 130%

Question: And the viability, T/C [13]?
Answer: 93.7%

Question: What about the viability, T/C [14] of the same molecule?
Answer: 87.4%

Question: What about the viability, T/C [15] of the same molecule?
Answer: 87.9%

Question: What about the viability, T/C [16] of the same molecule?
Answer: 102%

Question: What about the viability, T/C [17] of the same molecule?
Answer: 115%

Question: And the viability, T/C [18]?
Answer: 98.7%

Question: And the viability, T/C [19]?
Answer: 74.7%

Question: What about the viability, T/C [20] of the same molecule?
Answer: 59.1%

Question: What about the viability, T/C [21] of the same molecule?
Answer: 54.3%

Question: What about the viability, T/C [22] of the same molecule?
Answer: 59.7%

Question: What about the viability, T/C [23] of the same molecule?
Answer: 71.9%

Question: What about the viability, T/C [24] of the same molecule?
Answer: 62%

Question: And the viability, T/C [25]?
Answer: 37%

Question: And the viability, T/C [26]?
Answer: 51.8%

Question: What about the viability, T/C [27] of the same molecule?
Answer: 44.6%

Question: What about the viability, T/C [28] of the same molecule?
Answer: 40.2%

Question: What about the viability, T/C [29] of the same molecule?
Answer: 44.2%

Question: And the viability, T/C [30]?
Answer: 31.9%

Question: And the viability, T/C [31]?
Answer: 69.2%

Question: And the viability, T/C [32]?
Answer: 62.3%

Question: And the viability, T/C [33]?
Answer: 64.3%

Question: What about the viability, T/C [34] of the same molecule?
Answer: 58.3%

Question: And the viability, T/C [35]?
Answer: 60%

Question: And the viability, T/C [36]?
Answer: 52.8%

Question: CC(=O)O[C@H]1C(=O)[C@@]2(C)[C@H]([C@H](OC(=O)c3ccccc3)[C@]3(O)C[C@H](OC(=O)[C@H](O)[C@@H](NC(=O)c4ccccc4)c4ccccc4)C(C)=C1C3(C)C)[C@]1(OC(C)=O)CO[C@@H]1C[C@@H]2O + Cc1[nH]c2ccc(F)cc2c1-c1nc2c3cccnc3c3ncccc3c2[nH]1 was tested. Which pIC50 (second compound 0.0316 µM) did it give?
Answer: 6.85

Question: What about the pIC50 (second compound 0.1 µM) of the same molecule?
Answer: 7.29

Question: What about the pIC50 (second compound 0.316 µM) of the same molecule?
Answer: 5.36

Question: And the pIC50 (second compound 1 µM)?
Answer: > 7.50

Question: What about the pIC50 (second compound 3.16 µM) of the same molecule?
Answer: > 7.50

Question: And the pIC50 (second compound 10 µM)?
Answer: > 7.50

Question: What about the viability, T/C [1] of the same molecule?
Answer: 56.2%

Question: And the viability, T/C [2]?
Answer: 46.4%

Question: What about the viability, T/C [3] of the same molecule?
Answer: 48.4%

Question: What about the viability, T/C [4] of the same molecule?
Answer: 43.9%

Question: And the viability, T/C [5]?
Answer: 50.9%

Question: What about the viability, T/C [6] of the same molecule?
Answer: 39.8%

Question: What about the viability, T/C [7] of the same molecule?
Answer: 55.1%

Question: What about the viability, T/C [8] of the same molecule?
Answer: 42.1%

Question: What about the viability, T/C [9] of the same molecule?
Answer: 52.2%

Question: What about the viability, T/C [10] of the same molecule?
Answer: 41.7%

Question: What about the viability, T/C [11] of the same molecule?
Answer: 40.6%

Question: And the viability, T/C [12]?
Answer: 45.6%

Question: What about the viability, T/C [13] of the same molecule?
Answer: 63.6%

Question: And the viability, T/C [14]?
Answer: 59.6%

Question: And the viability, T/C [15]?
Answer: 52.5%

Question: What about the viability, T/C [16] of the same molecule?
Answer: 53.3%

Question: And the viability, T/C [17]?
Answer: 50.1%

Question: And the viability, T/C [18]?
Answer: 49.1%

Question: What about the viability, T/C [19] of the same molecule?
Answer: 49.8%

Question: And the viability, T/C [20]?
Answer: 42.9%

Question: And the viability, T/C [21]?
Answer: 50.1%

Question: And the viability, T/C [22]?
Answer: 39%

Question: What about the viability, T/C [23] of the same molecule?
Answer: 37.5%

Question: What about the viability, T/C [24] of the same molecule?
Answer: 40.1%

Question: And the viability, T/C [25]?
Answer: 45.2%

Question: And the viability, T/C [26]?
Answer: 33.6%

Question: What about the viability, T/C [27] of the same molecule?
Answer: 37.5%

Question: What about the viability, T/C [28] of the same molecule?
Answer: 39.3%

Question: And the viability, T/C [29]?
Answer: 34.9%

Question: And the viability, T/C [30]?
Answer: 38.4%

Question: And the viability, T/C [31]?
Answer: 40.3%

Question: And the viability, T/C [32]?
Answer: 46.3%

Question: And the viability, T/C [33]?
Answer: 41.7%

Question: What about the viability, T/C [34] of the same molecule?
Answer: 49.5%

Question: What about the viability, T/C [35] of the same molecule?
Answer: 48.3%

Question: And the viability, T/C [36]?
Answer: 39.6%

Question: How did the pIC50 (second compound 0.0316 µM) turn out when CCCS(=O)(=O)Nc1ccc(F)c(C(=O)c2c[nH]c3ncc(-c4ccc(Cl)cc4)cc23)c1F + Cc1[nH]c2ccc(F)cc2c1-c1nc2c3cccnc3c3ncccc3c2[nH]1 was run?
Answer: 5.07

Question: What about the pIC50 (second compound 0.1 µM) of the same molecule?
Answer: 5.06

Question: What about the pIC50 (second compound 0.316 µM) of the same molecule?
Answer: < 5.00

Question: What about the pIC50 (second compound 1 µM) of the same molecule?
Answer: 5.02

Question: What about the pIC50 (second compound 3.16 µM) of the same molecule?
Answer: > 7.50

Question: What about the pIC50 (second compound 10 µM) of the same molecule?
Answer: 5.09

Question: And the viability, T/C [1]?
Answer: 130%

Question: And the viability, T/C [2]?
Answer: 118%

Question: And the viability, T/C [3]?
Answer: 135%

Question: And the viability, T/C [4]?
Answer: 115%

Question: And the viability, T/C [5]?
Answer: 114%

Question: And the viability, T/C [6]?
Answer: 39.2%

Question: What about the viability, T/C [7] of the same molecule?
Answer: 103%

Question: And the viability, T/C [8]?
Answer: 112%

Question: What about the viability, T/C [9] of the same molecule?
Answer: 97.9%

Question: What about the viability, T/C [10] of the same molecule?
Answer: 106%

Question: What about the viability, T/C [11] of the same molecule?
Answer: 95.5%

Question: And the viability, T/C [12]?
Answer: 43.6%

Question: What about the viability, T/C [13] of the same molecule?
Answer: 122%

Question: What about the viability, T/C [14] of the same molecule?
Answer: 126%

Question: And the viability, T/C [15]?
Answer: 102%

Question: And the viability, T/C [16]?
Answer: 103%

Question: What about the viability, T/C [17] of the same molecule?
Answer: 129%

Question: What about the viability, T/C [18] of the same molecule?
Answer: 51.6%

Question: What about the viability, T/C [19] of the same molecule?
Answer: 80.9%

Question: What about the viability, T/C [20] of the same molecule?
Answer: 71.9%

Question: And the viability, T/C [21]?
Answer: 84.2%

Question: And the viability, T/C [22]?
Answer: 76%

Question: What about the viability, T/C [23] of the same molecule?
Answer: 92.2%

Question: And the viability, T/C [24]?
Answer: 48.8%

Question: And the viability, T/C [25]?
Answer: 39.3%

Question: And the viability, T/C [26]?
Answer: 48.6%

Question: And the viability, T/C [27]?
Answer: 43.1%

Question: What about the viability, T/C [28] of the same molecule?
Answer: 56.4%

Question: And the viability, T/C [29]?
Answer: 56.2%

Question: And the viability, T/C [30]?
Answer: 31.1%

Question: And the viability, T/C [31]?
Answer: 73.4%

Question: And the viability, T/C [32]?
Answer: 65.1%

Question: What about the viability, T/C [33] of the same molecule?
Answer: 78.5%

Question: What about the viability, T/C [34] of the same molecule?
Answer: 70.4%

Question: What about the viability, T/C [35] of the same molecule?
Answer: 83.5%

Question: What about the viability, T/C [36] of the same molecule?
Answer: 45.1%
